Experimental data as given in patent US5013722A, “Cholecystokinin analogs for controlling appetite” (Hoffmann-LaRoche Inc., priority 1989, dated 1991).
Entries after “also recorded” stand apart in the source; their conditions may differ. Where a SMILES comes first, the peptide text is derived from it. [ ]: non-standard residue; d: D form. Thr(SO3H) = C[C@@H](OS(=O)(=O)O)[C@H](N)C(=O)O; sY = N[C@@H](Cc1ccc(OS(=O)(=O)O)cc1)C(=O)O; NMeF = CN[C@@H](Cc1ccccc1)C(=O)O

Legend:
[1] = target: T1, receptors in bovine striatum (3H-CCK-8-(SO3 H) binding, central receptor) (Bos taurus, UniProt P79266); assay: In vitro receptor binding assay, bovine striatum homogenate, 3H-CCK-8-(SO3H) radioligand; conditions: 0.15 nM radioligand, 30 min, 25° C.; read-out: Bovine Striatum IC50 (inhibition of specific 3H-CCK-8-(SO3H) binding)
T1 construct: receptors in homogenized preparations of rat pancreatic cells and bovine striata; from tissue; host or cells: bovine striatum homogenate (48,000 x g pellet)
T1 sequence (P79266 1-454): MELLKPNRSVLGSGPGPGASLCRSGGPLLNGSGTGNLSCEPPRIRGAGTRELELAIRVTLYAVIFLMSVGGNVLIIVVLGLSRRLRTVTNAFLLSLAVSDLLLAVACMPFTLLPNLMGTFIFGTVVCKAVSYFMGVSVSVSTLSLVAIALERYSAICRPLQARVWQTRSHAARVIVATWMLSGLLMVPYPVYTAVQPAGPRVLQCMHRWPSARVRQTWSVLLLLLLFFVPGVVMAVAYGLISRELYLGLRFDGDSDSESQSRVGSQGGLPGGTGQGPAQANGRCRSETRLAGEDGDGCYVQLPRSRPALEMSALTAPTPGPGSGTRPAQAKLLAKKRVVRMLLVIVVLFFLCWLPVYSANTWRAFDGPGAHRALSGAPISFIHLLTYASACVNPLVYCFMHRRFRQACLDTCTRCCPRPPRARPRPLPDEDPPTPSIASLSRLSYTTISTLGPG
Description: Frozen bovine striatum (approx. 5 g) and fresh rat pancreas (approx. 5 g) cleaned of fat and extraneous tissue were homogenized in HEPES buffer #1 (10 mM HEPES+130 mM NaCl+5 mM MgCl2. pH 7.4) using 35 parts buffer per 1 part tissue on a wet weight/volume basis (approx. 175 ml). The tissue was homogenized 2 x for approx. 15 sec. at 0° C. using a Polytron homogenizer at a setting of 6. The tissue was isolated by centrifugation at 48,000 x g for 10 min. at 0° C. The resulting tissue pellet was resuspended in HEPES buffer #2 (10 mM HEPES+130 mM NaCl+5 mM MgCl2 +1 mg/L phenylmethanesulfonyl fluoride (PMSF)+200 mg/L Bacitracin): 1 part striatal tissue (original wet weight) per 80 parts buffer and 1 part pancreas tissue (original wet weight) per 70 parts buffer.
Incubation was initiated by combining various concentrations of native CCK-8 or peptides of formula I, II and III with ^3 H-CCK-8-(SO3 H) (final conc.=0.15 nM) and tissue homogenate (striatum 0.26 mg protein in 2 ml final volume; pancreas 0.165 mg protein in 1 ml final volume). Samples were incubated for 30 min. at 25° C. and the incubation terminated by pouring the mixture onto a pre-wet Whatman GF/B filter on a Sandbeck Vacuum Filtration Manifold. The incubation tubes were washed with 2×3 ml of ice-cold HEPES Buffer #2 and the wash filtered through the GF/B filter. The filter was air dried for 10 min. and then placed in a scintillation vial with 12 ml of Beckman HP/b Ready-Solv scintillation cocktail. The vials were shaken for 2 hours and then counted using a Beckman Model 7800 liquid scintillation spectrometer. Non-specific binding was determined in the presence of 1 micromole native CCK-8 and subtracted from all samples to determine specific binding. The concentration of ^3 peptide necessary to inhibit 50% of total specific H-CCK-8-(SO3 H) binding (IC50 value) was determined by log-probit analysis.

[2] = system: Male Sprague-Dawley (CD) rats, food intake; assay: Two-meal feeding assay, intraperitoneal administration; type: in vivo, rat
Description: Male Sprague-Dawley (CD) rats weighing 180-200 grams (Charles River Breeding Laboratories) were acclimated to a 12 h light/dark cycle (6 a.m. to 6 p.m.) in a room kept at 22° C. They were subsequently fasted for two days, weighed, placed in individual cages, and a four-day period of meal training was begun. During this time the rats were given ground laboratory chow (Purina Lab Chow) in jars for one hour from 9:00 a.m. until 10:00 a.m., the jars were removed from 10:00 a.m. to 12:00 p.m., and placed back in the cages from 12:00 until 1:00 p.m. Under this `1-2-1` meal feeding regime most rats learn to eat approximately as much Per day during the two hours they have access to food as rats which have food ad libitum over the entire 24-hour day. On the fourth day, the rats were weighed again, and any which lost more than five grams body weight were excluded from the test. The animals were then distributed into experimental (n=5 to 6) and control groups (n=6-12). but not matched for body weight.
Peptides of the invention were suspended either in saline. if soluble, or in 1% gum arabic, if insoluble, at concentrations of 0 to 320 μg/ml/kg body weight and were administered intraperitonerally 15 min before the first meal on day 5 of meal feeding. The rats were then given their meals as they had been during the previous four days, and the food cups were weighed both before and after each meal to determine food consumption. Food intake was expressed as a mean and standard error of the mean in grams consumed or as a percent of control values for the various groups. The treated groups were compared to the control groups by t-test analysis. […]

IC50 [1]: 100 to 500 nM
Structure (SMILES): CSCC[C@H](NC(=O)[C@H](Cc1ccc(OS(=O)(=O)O)cc1)NC(C)=O)C(=O)NCC(=O)N[C@@H](Cc1c[nH]c2ccccc12)C(=O)N[C@@H](CCSC)C(=O)N[C@H](C(=O)N(C)[C@@H](Cc1ccccc1)C(N)=O)[C@@H](C)OS(=O)(=O)O [Example 2, Ac-Tyr(SO3 H)-Met-Gly-Trp-Met-Thr(SO3 H)-N-methyl-Phe-NH2] (Ac-[sY]MGWM[Thr(SO3H)][NMeF]-NH2)
Food Intake 1st Meal ([2]; 32 microgm/Kg i.p., 15 min before first meal, mean ± SEM): 8 ± 1 % of Control
Food Intake 2nd Meal ([2]; 32 microgm/Kg i.p., mean ± SEM): 26 ± 4 % of Control
Food intake suppression over dosage range compared with CCK-8 (FIG. 1) ([2]; first meal, i.p., dosage range of FIG. 1): effectively reduced food intake during the first meal at a much lower dosage range than did CCK-8; also recorded: effectively suppresses food intake in rats at a lower dosage than does CCK-8
